Data: patent EP1978972B1, “USE OF ALKYLGLUCOSIDE ESTERS AS BETA-DEFENSIN INDUCERS” (Pierre Fabre Dermo-Cosmétique, priority 2006, dated 2007)

Test system: LL-37
Assay: Induction of LL-37 gene expression in skin explant, systemic treatment, quantitative RT-PCR
Type: cell-based, human
Settings: 30 µg/ml
Source text: Il est connu de WO 97/45101 que les esters d'α-alkylglucoside peuvent être utilisés comme agent anti-microbien et/ou anti-fongique pour agir en tant que conservateur dans une composition, pour la préserver d'un développement microbien. […]

laurate de butylglucoside [αβ-LBG brut]
FI, LL-37 (2 h): 6 | FI, LL-37 (up to 24 h, in words): reste stable jusqu'à 24 h
